# Laboratory results taken from BindingDB's records for PubMed 7523657 (Eli Lilly, 1994).
# How the values were obtained:
# [1] = target: T1, Alpha-2C adrenergic receptor (Rattus norvegicus, UniProt P22086)
# T1 sequence (P22086 whole entry): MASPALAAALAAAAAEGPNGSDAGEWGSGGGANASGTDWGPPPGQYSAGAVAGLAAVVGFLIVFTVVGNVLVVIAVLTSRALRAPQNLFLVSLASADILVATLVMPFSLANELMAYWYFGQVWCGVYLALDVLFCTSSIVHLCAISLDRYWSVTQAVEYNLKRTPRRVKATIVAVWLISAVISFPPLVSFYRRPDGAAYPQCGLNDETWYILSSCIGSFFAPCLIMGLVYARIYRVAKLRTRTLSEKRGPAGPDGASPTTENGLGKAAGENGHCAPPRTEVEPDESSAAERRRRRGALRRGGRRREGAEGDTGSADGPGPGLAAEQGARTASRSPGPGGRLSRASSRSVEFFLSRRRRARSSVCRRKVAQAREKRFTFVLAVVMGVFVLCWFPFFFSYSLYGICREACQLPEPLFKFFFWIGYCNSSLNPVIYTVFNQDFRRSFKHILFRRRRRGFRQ
# [2] = target: 5-hydroxytryptamine receptor 2A (Rattus norvegicus, UniProt P14842)
# Chain of 5-hydroxytryptamine receptor 2A (P14842 whole entry): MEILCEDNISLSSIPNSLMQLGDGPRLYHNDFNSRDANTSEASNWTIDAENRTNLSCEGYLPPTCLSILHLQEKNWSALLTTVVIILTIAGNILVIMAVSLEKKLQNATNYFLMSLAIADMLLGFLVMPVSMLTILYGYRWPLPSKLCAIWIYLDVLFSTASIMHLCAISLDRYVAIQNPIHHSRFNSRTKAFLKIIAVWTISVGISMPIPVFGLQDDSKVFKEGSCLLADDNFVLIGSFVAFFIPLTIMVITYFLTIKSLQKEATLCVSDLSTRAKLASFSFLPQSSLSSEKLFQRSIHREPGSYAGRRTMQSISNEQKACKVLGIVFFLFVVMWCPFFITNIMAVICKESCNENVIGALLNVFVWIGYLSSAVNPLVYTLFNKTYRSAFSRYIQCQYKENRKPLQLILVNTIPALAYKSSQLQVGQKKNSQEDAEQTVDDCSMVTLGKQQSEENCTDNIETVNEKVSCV
# [3] = target: T2, 5-hydroxytryptamine receptor 3A (Rattus norvegicus, UniProt P35563)
# T2 sequence (P35563 whole entry): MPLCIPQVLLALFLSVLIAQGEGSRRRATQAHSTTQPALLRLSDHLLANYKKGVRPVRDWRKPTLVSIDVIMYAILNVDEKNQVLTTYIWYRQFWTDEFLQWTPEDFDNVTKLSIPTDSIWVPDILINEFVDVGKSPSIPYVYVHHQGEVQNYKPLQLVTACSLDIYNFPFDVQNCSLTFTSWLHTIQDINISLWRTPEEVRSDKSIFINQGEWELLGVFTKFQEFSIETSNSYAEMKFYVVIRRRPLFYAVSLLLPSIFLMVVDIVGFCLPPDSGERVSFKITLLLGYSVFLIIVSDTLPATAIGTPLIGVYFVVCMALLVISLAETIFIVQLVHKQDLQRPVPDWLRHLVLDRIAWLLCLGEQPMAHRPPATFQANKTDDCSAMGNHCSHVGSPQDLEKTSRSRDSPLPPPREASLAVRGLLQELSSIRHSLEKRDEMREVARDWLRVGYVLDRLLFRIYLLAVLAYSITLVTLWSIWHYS
# [4] = target: T3, Muscarinic acetylcholine receptor M2 (Rattus norvegicus, UniProt P10980)
# T3 sequence (P10980 whole entry): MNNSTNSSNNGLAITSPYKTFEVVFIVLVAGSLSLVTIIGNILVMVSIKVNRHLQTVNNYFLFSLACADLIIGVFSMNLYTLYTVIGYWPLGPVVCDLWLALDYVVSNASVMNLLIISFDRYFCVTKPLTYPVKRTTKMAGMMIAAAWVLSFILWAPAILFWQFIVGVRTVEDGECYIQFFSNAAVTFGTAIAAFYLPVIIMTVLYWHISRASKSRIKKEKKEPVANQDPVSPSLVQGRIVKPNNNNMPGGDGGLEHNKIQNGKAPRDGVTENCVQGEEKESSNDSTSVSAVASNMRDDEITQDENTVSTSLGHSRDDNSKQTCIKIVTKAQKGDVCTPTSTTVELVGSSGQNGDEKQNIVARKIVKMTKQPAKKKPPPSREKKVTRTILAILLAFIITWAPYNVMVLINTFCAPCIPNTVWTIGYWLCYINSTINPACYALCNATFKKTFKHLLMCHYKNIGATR
# [5] = target: Gamma-aminobutyric acid receptor subunit alpha-1 (Rattus norvegicus, UniProt P62813)
# Chain of Gamma-aminobutyric acid receptor subunit alpha-1 (P62813 whole entry): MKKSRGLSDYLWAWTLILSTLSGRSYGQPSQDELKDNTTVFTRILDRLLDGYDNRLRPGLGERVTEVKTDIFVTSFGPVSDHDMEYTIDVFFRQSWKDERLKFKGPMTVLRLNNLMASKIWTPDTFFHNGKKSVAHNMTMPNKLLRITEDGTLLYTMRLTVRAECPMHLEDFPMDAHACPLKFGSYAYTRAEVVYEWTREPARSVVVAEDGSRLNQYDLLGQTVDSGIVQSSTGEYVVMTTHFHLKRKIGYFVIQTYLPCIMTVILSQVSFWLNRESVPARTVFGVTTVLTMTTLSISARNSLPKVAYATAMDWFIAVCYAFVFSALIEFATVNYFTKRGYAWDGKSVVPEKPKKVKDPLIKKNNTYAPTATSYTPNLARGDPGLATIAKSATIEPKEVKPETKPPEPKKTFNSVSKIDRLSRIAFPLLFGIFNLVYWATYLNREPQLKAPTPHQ
# D(2) dopamine receptor = D(2) dopamine receptor (Rattus norvegicus, UniProt P61169)
# Chain of D(2) dopamine receptor (P61169 whole entry): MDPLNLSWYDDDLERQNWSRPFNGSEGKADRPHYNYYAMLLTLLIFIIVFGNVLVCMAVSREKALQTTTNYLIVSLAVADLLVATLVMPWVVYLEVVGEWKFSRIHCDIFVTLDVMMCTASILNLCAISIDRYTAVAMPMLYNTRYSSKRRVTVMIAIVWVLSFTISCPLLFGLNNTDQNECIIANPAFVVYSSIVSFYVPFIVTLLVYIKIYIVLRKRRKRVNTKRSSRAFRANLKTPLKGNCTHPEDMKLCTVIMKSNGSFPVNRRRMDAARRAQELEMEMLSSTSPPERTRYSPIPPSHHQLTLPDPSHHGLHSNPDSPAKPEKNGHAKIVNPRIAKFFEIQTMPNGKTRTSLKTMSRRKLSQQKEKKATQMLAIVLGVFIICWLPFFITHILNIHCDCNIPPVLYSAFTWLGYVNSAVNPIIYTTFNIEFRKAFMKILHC
# D(1A) dopamine receptor = D(1A) dopamine receptor (Rattus norvegicus, UniProt P18901)
# Chain of D(1A) dopamine receptor (P18901 whole entry): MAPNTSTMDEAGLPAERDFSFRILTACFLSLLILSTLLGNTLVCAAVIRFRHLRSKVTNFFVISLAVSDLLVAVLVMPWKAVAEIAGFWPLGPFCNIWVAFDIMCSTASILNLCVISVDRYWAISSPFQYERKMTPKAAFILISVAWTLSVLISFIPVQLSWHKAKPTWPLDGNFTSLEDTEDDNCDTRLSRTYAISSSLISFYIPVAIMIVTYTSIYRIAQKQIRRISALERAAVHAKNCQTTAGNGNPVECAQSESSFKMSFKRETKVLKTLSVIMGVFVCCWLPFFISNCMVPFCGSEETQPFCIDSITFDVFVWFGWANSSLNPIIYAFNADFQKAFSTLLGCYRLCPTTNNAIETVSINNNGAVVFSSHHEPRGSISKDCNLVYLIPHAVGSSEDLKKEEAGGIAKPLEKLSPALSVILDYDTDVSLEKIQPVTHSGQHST
# [6] = target: 5-hydroxytryptamine receptor 1B (Rattus norvegicus, UniProt P28564)
# Chain of 5-hydroxytryptamine receptor 1B (P28564 whole entry): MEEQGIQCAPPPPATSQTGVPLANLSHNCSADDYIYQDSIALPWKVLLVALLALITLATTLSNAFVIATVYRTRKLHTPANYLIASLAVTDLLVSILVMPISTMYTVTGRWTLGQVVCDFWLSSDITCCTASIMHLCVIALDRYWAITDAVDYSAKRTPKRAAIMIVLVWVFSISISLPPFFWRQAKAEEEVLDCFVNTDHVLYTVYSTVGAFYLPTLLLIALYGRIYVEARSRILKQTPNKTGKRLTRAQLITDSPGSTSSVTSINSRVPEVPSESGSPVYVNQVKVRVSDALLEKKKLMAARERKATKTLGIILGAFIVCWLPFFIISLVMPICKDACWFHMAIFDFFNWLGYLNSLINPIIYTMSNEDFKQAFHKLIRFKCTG
# [7] = target: T4, 5-hydroxytryptamine receptor 2C (Rattus norvegicus, UniProt P08909)
# T4 sequence (P08909 whole entry): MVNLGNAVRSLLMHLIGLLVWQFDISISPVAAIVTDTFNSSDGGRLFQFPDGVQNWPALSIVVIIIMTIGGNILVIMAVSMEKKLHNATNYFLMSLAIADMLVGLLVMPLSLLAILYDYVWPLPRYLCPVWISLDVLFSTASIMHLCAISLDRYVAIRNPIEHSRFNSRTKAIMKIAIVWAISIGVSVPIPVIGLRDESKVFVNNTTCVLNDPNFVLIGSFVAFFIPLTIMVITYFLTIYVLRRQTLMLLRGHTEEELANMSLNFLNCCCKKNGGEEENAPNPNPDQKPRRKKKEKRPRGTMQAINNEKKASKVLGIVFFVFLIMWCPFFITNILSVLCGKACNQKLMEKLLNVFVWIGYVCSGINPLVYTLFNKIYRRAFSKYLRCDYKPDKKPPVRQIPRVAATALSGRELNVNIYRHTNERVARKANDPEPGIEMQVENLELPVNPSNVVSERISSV
# [8] = target: T5, Alpha-1A adrenergic receptor (Rattus norvegicus, UniProt P43140)
# T5 sequence (P43140 whole entry): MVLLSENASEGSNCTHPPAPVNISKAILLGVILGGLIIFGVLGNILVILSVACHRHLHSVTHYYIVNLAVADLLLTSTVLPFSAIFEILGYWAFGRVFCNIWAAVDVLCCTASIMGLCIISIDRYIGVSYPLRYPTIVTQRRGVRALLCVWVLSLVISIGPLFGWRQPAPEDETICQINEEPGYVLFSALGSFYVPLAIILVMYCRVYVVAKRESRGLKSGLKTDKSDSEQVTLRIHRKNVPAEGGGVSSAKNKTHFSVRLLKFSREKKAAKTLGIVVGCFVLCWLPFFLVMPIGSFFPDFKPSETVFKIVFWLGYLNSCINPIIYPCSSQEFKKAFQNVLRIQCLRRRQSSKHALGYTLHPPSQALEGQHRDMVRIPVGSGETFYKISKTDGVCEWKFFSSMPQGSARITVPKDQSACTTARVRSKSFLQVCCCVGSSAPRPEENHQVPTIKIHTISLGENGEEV
# [9] = target: Beta-2 adrenergic receptor (Rattus norvegicus, UniProt P10608)
# Chain of Beta-2 adrenergic receptor (P10608 whole entry): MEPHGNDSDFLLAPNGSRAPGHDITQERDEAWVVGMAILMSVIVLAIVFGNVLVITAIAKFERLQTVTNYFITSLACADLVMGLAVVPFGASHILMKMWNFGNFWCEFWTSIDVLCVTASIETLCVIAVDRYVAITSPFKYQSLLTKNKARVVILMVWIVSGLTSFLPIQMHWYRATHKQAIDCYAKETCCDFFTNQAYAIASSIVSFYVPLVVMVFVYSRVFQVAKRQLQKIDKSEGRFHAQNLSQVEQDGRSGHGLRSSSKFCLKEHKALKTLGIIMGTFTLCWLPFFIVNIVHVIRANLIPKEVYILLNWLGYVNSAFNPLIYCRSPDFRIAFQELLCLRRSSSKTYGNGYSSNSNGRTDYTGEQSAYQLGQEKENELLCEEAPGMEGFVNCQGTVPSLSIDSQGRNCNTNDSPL
# [10] = target: 5-hydroxytryptamine receptor 1D (Rattus norvegicus, UniProt P28565)
# Chain of 5-hydroxytryptamine receptor 1D (P28565 whole entry): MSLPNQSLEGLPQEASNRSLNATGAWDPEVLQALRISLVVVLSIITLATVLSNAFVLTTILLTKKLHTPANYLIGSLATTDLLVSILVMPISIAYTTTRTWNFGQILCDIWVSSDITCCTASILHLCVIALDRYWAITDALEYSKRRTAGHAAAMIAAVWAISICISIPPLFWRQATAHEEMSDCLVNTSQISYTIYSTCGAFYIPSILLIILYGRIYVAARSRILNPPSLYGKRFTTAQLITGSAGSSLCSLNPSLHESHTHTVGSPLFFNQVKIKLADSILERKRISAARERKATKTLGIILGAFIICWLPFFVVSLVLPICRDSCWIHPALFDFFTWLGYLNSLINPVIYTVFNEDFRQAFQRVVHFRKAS
# Histamine H1 receptor = Histamine H1 receptor (Rattus norvegicus, UniProt P31390)
# Chain of Histamine H1 receptor (P31390 whole entry): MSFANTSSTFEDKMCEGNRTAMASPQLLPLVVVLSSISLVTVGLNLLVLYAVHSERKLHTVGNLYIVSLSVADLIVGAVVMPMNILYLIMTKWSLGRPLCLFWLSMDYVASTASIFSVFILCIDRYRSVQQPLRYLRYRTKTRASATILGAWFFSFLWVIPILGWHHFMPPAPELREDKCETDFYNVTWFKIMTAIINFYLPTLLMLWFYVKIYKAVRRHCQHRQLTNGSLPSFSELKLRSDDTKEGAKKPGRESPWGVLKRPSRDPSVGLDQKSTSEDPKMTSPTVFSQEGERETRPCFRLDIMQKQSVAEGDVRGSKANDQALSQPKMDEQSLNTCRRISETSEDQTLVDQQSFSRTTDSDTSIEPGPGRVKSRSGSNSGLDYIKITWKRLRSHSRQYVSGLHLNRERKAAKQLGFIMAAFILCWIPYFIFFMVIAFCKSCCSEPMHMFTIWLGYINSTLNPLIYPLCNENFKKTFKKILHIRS
compound,measurement,setting,value
CCCN(CCC)C1Cc2c[nH]c3ccc(C(C)=O)c(c23)C1 (stereo not drawn) [LY-293384],Ki,[1],1 µM
same,Ki,[2],1 µM
same,Ki,[3],1 µM
same,Ki,[4],1 µM
same,Ki,[5],1 µM
same,Ki,D(2) dopamine receptor,1 µM
same,Ki,D(1A) dopamine receptor,1 µM
same,Ki,[6],1 µM
same,Ki,[7],1 µM
same,Ki,[8],1 µM
same,Ki,[9],1 µM
same,Ki,[10],0.0669 µM
same,Ki,Histamine H1 receptor,1 µM
